Test results from patent US8318664B2, “Unacylated ghrelin fragments as therapeutic agent in the treatment of obesity” (Alize Pharma SAS, priority 2007, dated 2012).
“Also recorded” adds a separate entry of the source. No end group written: not given here.

Legend:
[1] = tested on: UAG receptor on INS-1E pancreatic β-cells; test: Competition with [125I-Tyr4]-UAG for binding sites on INS-1E membranes; design: species or system rat
Protocol: (§1) The ability of the fragment UAG (6-13) to compete in a concentration-dependent manner with [^125I-Tyr^4]-UAG for HIT-T15 (FIG. 10A) and INS-1E (FIG. 10B) binding sites was assayed. As shown in FIGS. 10A and 10B, unlabelled UAG (1-28) and UAG (6-13) competed with a similar efficacy and in a concentration-dependent fashion with [^125I-Tyr^4]-UAG for such binding sites in both cell lines.
(§2) Membranes from hamster HIT-T15 and rat INS-1E pancreatic β-cells were prepared and assayed for the presence of [^125I-Tyr^4]-UAG binding. The ability of UAG fragments to compete with the radioligand for such binding sites has been evaluated as previously described (Ref. 4). Data are presented as mean±S.E.M. of three independent experiments.

[2] = tested on: HIT-T15 β-cells; test: Glucose-induced insulin secretion in HIT-T15 β-cells; type: cell-based, hamster; conditions: data not shown
Protocol: HIT-T15 cells were plated at density of 5×10^5 cells into 100-mm dishes and serum starved for 24 h before incubation for 1 h at 37° C. in HEPES-buffered Krebs-Ringer bicarbonate buffer (KRBH), containing 0.5% BSA with 1.25 mM glucose. The medium was changed and the cells were incubated again for 1 h in KRBH/0.5% BSA containing 1.25, 7.5 or 15 mM glucose. Following acid ethanol extraction of the hormone, secreted insulin was quantitated by a radioimmunoassay kit (Linco Research, Labodia, Yens, Switzerland) which recognizes human insulin and cross reacts with rat insulin.

[3] = tested on: UAG receptor on HIT-T15 pancreatic β-cells; test: Competition with [125I-Tyr4]-UAG for binding sites on HIT-T15 membranes; design: species or system hamster
Protocol: as §1, §2

[4] = tested on: hamster HIT-T15 β-cells; test: MTT cell survival assay in HIT-T15 β-cells; type: cell-based; conditions: for increase of cell survival: serum-free conditions
Protocol: MTT experiments were also performed in hamster HIT-T15 β-cells, to test the survival effect of UAG (1-28) or its fragments UAG (1-14), UAG (1-18), UAG (1-5) and UAG (17-28) in serum deprived medium, either alone or with IFN-γ/TNF-α/IL-1β. As for the experiments performed on INS-1E β-cells, the peptides were tested at increasing concentrations, ranging from 0.1 nM to 100 nM.
The survival effect of UAG (6-13), UAG (8-13), UAG (8-12), UAG (8-11), UAG (9-12) and UAG (9-11) was assessed in cytokine-treated HIT-T15 β-cells.
The protective effects of peptides UAG (8-13) and UAG (8-12) were found similar to those of UAG (1-14) and UAG (1-18). A peptide made of the inverse sequence of UAG (1-14) and named UAG (14-1), was used as negative control for these experiments (FIG. 5A). […] These effects were however lower than those of UAG (6-13) (FIG. 5B).
UAG fragments with alanine (Ala) substitutions at different amino acid positions (6 to 13) were tested with regards to their survival effects in HIT-T15 hamster β-cells. The cells were cultured in serum deprived medium, either alone or with IFN-γ/TNF-α/IL-1β. The peptides were tested at the concentrations of 1 nM to 100 nM. […] Under treatment with cytokines, where cell survival was reduced by ≈18% with respect to serum starved conditions, all Ala substitutions, except those at positions 10 and 11, completely reversed cell death and brought the survival rate to levels that were even higher than those under serum-free conditions, at both 1 nM and 100 nM concentrations. These effects were similar to those elicited by the original peptide UAG (6-13) (FIG. 11B).
Particularly, the best effect was exerted by Gly 6-UAG (6-13), whereas the lowest was seen using AcSer 6-UAG (6-13), AcSer 6-(D)Pro 7-UAG (6-13) (FIG. 12B).
(§3) Hamster HIT-T15 insulin-secreting β-cells were obtained and cultured as described (Refs. 14, 4). INS-1E rat β-cells were kindly provided by Prof. Claes B. Wollheim (University Medical Center, Geneva, Switzerland) and cultured as described (Refs. 14, 4). Cell culture reagents were from Invitrogen (Milano, Italy). Cytokines were from Biosource (Invitrogen, Italy).
(§4) Cell survival was assessed by 3-[4,5-dimethylthiazol-2-yl]-2,5diphenyltetrazolium bromide (MTT) as described previously (Ref. 4). Cells were seeded on 96-well plates at a density of 5×10^3 cells/well. After treatments, cells were incubated with 1 mg/ml MTT for ≈1 h. The medium was aspirated, and the formazan product solubilized with 100 μl DMSO. Viability was assessed by spectrophotometry at 570 nm absorbance using a 96-well plate reader.

[5] = tested on: human pancreatic islets; test: Insulin secretion in human pancreatic islets; type: cell-based; conditions: peptide 100 nM, glucose absent or 2 to 25 mM
Protocol: The effects of UAG (1-14) and UAG (1-18), both used at 100 nM, were investigated on insulin secretion in human islets. […] UAG (1-28) and Exendin-4 were used as positive controls (FIGS. 8C and 8D).

[6] = tested on: human pancreatic islets; test: MTT cell survival assay in human pancreatic islets; type: cell-based; conditions: human islet cells, 1 nM to 100 nM
Protocol: The survival effect of UAG (1-14), UAG (1-18), UAG (1-5) and UAG (17-28), with respect to that of full length UAG (1-28), was assessed in human pancreatic islets by MTT. The peptides were tested in islet cells cultured in serum deprived medium, either alone or with IFN-γ/TNF-α/IL-1β (5 ng/ml each).
Human islets were obtained from pancreases of multiorgan donors as described (Ref. 4). Islet preparations with purity >70%, not suitable for transplantation, were provided by European Consortium for Islet Transplantation (ECIT) “Islets for Research Distribution Program,” Transplant Unit, Scientific Institute San Raffaele, Vita-Salute University, Milan. Islets (10,000) were cultured in CMRL (Invitrogen) with 10% FBS.
as §4

[7] = tested on: INS-1E rat β-cells; test: MTT cell survival assay in INS-1E β-cells; type: cell-based; conditions: 0.1 nM to 100 nM
Protocol: The peptides were tested at increasing concentrations, ranging from 0.1 nM to 100 nM.
as §3, §4

[8] = tested on: ob/ob mice; test: ob/ob mice, 4 weeks infusion by Alzet pump; type: in vivo, mouse
Protocol: Baseline tail vein plasma samples were collected from free-fed and 16 h fasted ob/ob mice 7 and 6 days before pump implantation into K2EDTA coated capillary tubes (Microvette CB300 K2E; Sarstedt, Germany). The animals were then separated into three groups with approximately equivalent weight ranges. Ten week old mice were anesthetized, and a filled Alzet 1004 pump was inserted, delivery portal first, into the peritoneal cavity. The musculoperitoneal and skin layers were then closed using interrupted sutures (Vicryl 5.0 FS-2 absorbable suture). Animals received pumps containing either saline, 10 mg/ml UAG, or 3.5 mg/mL UAG (6-13) (n=8 per group). Alzet 1004 pumps deliver […], and infused 30 μg of hUAG/animal/day (˜600 μg/kg/day) and 10 μg of UAG (6-13)/animal/day (˜200 μg/kg/day).
Blood samples (at 0900-1000) were obtained from fed and fasted animals at weeks 2 and 4 via the tail vein into EDTA Microvette tubes. Glucose levels in tail vein blood were measured directly using a glucometer. On the last day of treatment baseline (fasted) blood samples were taken.
For the experimental data illustrated in FIGS. 14A, 14B, 15 and 16, the animals were obtained from Charles River Laboratories (Maastricht, The Netherlands). Animals (B6.V-Lep^ob/J, Charles River Laboratories, Belgian colony) were received in our animal facilities at 8 weeks of age, and acclimatized in individual cages for 2 weeks before treatments began. They were maintained under standard 12:12 h light:dark conditions, 21° C., and were allowed free access to food and water. The animals were also handled daily to accustom them to the method used for blood collection. The peptides were dissolved in sterile, nonpyrogenic, 0.9% saline (Baxter BV, Utrecht, The Netherlands). D-glucose was obtained from Sigma-Aldrich Chemie BV (Zwijndrecht, The Netherlands), and was dissolved at 400 mg/ml in 0.9% saline. Alzet pumps (model 1004) were obtained from Charles River Laboratories (Maastricht, The Netherlands). Pumps were filled with 0.9% saline, UAG or UAG (6-13) solution under sterile conditions, and pre-incubated in 0.9% saline for at least 48 hours at 37° C. to initiate flow. Blood glucose levels were measured directly from tail vein incisions using a Freestyle mini glucometer and test strips (ART05214 Rev.A; Abbot, Amersfoort, The Netherlands). Plasma insulin levels were assayed by Ultra-sensitive mouse insulin ELISA (Cat. #10-1150-10; Mercodia, Sweden).

[9] = tested on: STZ-induced diabetic rats; test: Streptozotocin (STZ)-treated neonatal rats; conditions: for animal survival rate: day 9 after STZ
Protocol: Pregnant female Sprague-Dawley rats (n=10, day 14th-15th of pregnancy) were purchased from Harlan Srl (Italy), caged allowing free access to water and fed with a standard pellet rat diet. Natural birth occurred 6-7 days later. […] Dams were randomly assigned to the five groups and pups from the same litter were assigned to the same group. […] Pups were left with their mothers. All neonates were tested on day 2 for glycosuria using Accu-chek compact plus (Roche). Only those animals that were glycosuric at day 2 after birth were included in the STZ model group. […] Animals were killed at day 70 after birth by decapitation. Blood samples were collected after decapitation and immediately centrifuged at 20,000×g for 2 min at 4° C., and stored at −20° C. until assayed.
After excision, pancreases were removed and weighed. For insulin content determination, pancreases (35-50 mg) were homogenized and centrifuged in 5 ml acid-ethanol (0.15 mol/l HCl in 75% [vol/vol]ethanol) at 1,000 g for 20 min; the supernatants were stored at −80° C. For immunohistochemistry, additional pancreases were fixed in 4% paraformaldehyde fixative for 24 h and embedded in paraffin.
Plasma glucose levels were determined using a glucose analyzer. Insulin was measured from pancreases or from plasma by RIA as previously described (Ref. 15).

[10] = tested on: HIT-T15 β-cells; test: Cytokine-induced apoptosis in HIT-T15 β-cells; type: cell-based, hamster
Protocol: HIT-T15 β-cells were cultured for 24 h in serum-free medium, either alone or with IFN-γ/TNF-α/IL-1β. In both cell lines, apoptosis increased under cytokine treatment, with respect to serum starvation alone. […] UAG (14-1), the inverse sequence of UAG (1-14), was used as negative control, whereas UAG (1-28), was used as positive control in each experiment.

[11] = serum deprived medium with IFN-γ/TNF-α/IL-1β

Substance: GSSFLSPEHQRVQQ [UAG (1-14)]
- binding to the UAG receptor [1]: recognized and bound
- glucose-induced insulin secretion [2]: significantly increased glucose-induced insulin secretion
- binding to the UAG receptor [3]: recognized and bound
- cell survival (MTT) ([4]; serum deprived medium alone): significantly increased cell viability; also recorded: potently increased cell survival
- cell survival (MTT) [4, 11]: significantly increased cell viability; also recorded: potently increased cell survival
- insulin secretion [5]: significantly increased insulin secretion both in the absence and presence of glucose
- cell survival (MTT) ([6]; serum deprived medium with IFN-γ/TNF-α/IL-1β (5 ng/ml each)): prevented cell death at 100 nM
- cell survival (MTT) ([7]; serum deprived medium alone): potently increased cell survival
- cell survival (MTT) [7, 11]: potently increased cell survival

Substance: GSSFLSPEHQRVQQRKES [UAG (1-18)]
- cell survival (MTT) ([4]; serum deprived medium alone): significantly increased cell viability; also recorded: potently increased cell survival
- cell survival (MTT) [4, 11]: significantly increased cell viability; also recorded: potently increased cell survival
- insulin secretion [5]: significant effect with 7.5 mM glucose
- cell survival (MTT) ([6]; serum deprived medium alone): significantly increased cell survival at 1 nM and 10 nM
- cell survival (MTT) ([7]; serum deprived medium alone): potently increased cell survival
- cell survival (MTT) [7, 11]: potently increased cell survival

Substance: SPEHQRVQ [UAG (6-13), Ser-Pro-Glu-His-Gln-Arg-Val-Gln]
- binding to the UAG receptor [1]: highest binding activity
- binding to the UAG receptor [3]: highest binding activity
- cell survival (MTT) [4, 11]: potently inhibited cytokine-induced cell death; also recorded: strongly effective in increasing survival
- increase of cell survival ([4]; 1 nM): ≈ 18%
- increase of cell survival ([4]; 100 nM): ≈ 30%
- gonadal fat weight over the period of treatment ([8]; mouse, in vivo): did not cause an increase in gonadal fat weight
- decrease of gonadal fat pad weight relative to saline treated controls ([8]; period of treatment (4 weeks), trend p<0.06): approximately 7%
- suppression of fasting glucose concentrations from saline treated controls ([8]; week 4): This effect remained at week 4
- fed plasma glucose levels relative to saline controls ([8]; weeks 2 and 4, no statistically significant effects (RM-ANOVA)): consistent suppressive effect
- animal survival rate ([9]; 30 nmol/l (STZ alone ≈52%)): ≈ 71%
- animal survival rate ([9]; 100 nmol/l (STZ alone ≈52%)): 89%
- reduction of plasma glucose vs. STZ group ([9]; day 70, 30 nmol/l): 31%
- reduction of plasma glucose vs. STZ group ([9]; day 70, 100 nmol/l): 14%
- plasma insulin levels ([9]; day 70, STZ-treated rats, UAG (6-13) at both concentrations): increasing insulin levels
- antiapoptotic effect (cytokine-induced apoptosis) ([10]; 24 h serum-free medium with IFN-γ/TNF-α/IL-1β, 1, 10, 100 nM): significantly reduced cytokine-induced apoptosis; also recorded: strongest antiapoptotic effect
- cell number and morphology with respect to cytokine condition ([10]; cytokine-treated, data not shown): increased the number of cells, induced cell enlargement and small islets formation

Substance: exendin-4 [reference compound]
- insulin secretion [5]: significantly increased insulin secretion both in the absence and presence of glucose
